Results taken from patent publication US12607637B2, “Super-resolution morphology-correlated detection of labile zinc” (University of Cincinnati, priority 2020, dated 2026).
Several values for one entry are separate records, joined by “and”; a condition that tells them apart may be missing. Equal values may be shown once.

Experiments:
HeLa cells [1] = assay: Photostability in cells under continuous laser stimulation; assay type: cell-based
Experimental: At the same time, because NapBu-BPEA's optical stability is an important factor in super-resolution imaging, a long-term continuous laser (300 s) stimulation of cells was carried out, capturing images every 20 s in order to monitor the photostability of NapBu-BPEA and MTDR in cells (FIG. 4(f), (g)). […] These characteristics enabled NapBu-BPEA to dynamically monitor cellular ultrastructures with long-term super-resolution imaging.

HeLa cells [2] = assay: SIM imaging of labile Zn^2+ during CCCP- or EBSS-induced autophagy; assay type: cell-based
Description: The SIM images were acquired using a Nikon N-SIM system. The blue imaging channel for Hoechst 33258 with emission bandwidth at 420-495 nm upon excitation at 405 nm, the green imaging channel for NapBu-BPEA with emission bandwidth at 500-550 nm upon excitation at 488 nm, the red imaging channel for ER-Tracker Red, LysoTracker Red and DAPRed with emission bandwidth at 570-640 nm upon excitation at 561 nm, the magenta imaging channel for MitoTracker Deep Red with emission bandwidth at 660-735 nm upon excitation at 640 nm were utilized. The imaging data analysis and thermal map construction were performed via analysis with ImageJ.
The intracellular Zn^2+ level in autophagy was imaged in HeLa cells. Prior to CCCP (10 μM, 24 h) or EBSS treatment ([…]), the cells were stained with DAPRed (1 μM, 30 min). The cells were finally stained by NapBu-BPEA (10 μM, 1 h) before SIM imaging.

HeLa cells [3] = assay: Cell viability determination via WST (LDH release) assay; assay type: cell-based; settings: 20 μM, 24 h
Experimental: The suspension of HeLa cells diluted with 50 μL DMEM was plated into 96-well plate. The inoculated cells were pre-cultured overnight in 96-well plate and replaced with a new 50 μL DMEM. 50 μL DMEM containing different concentrations of NapBu-BPEA was added and cultured in CO2 incubator at 37° C. for 24 h. After 10 μL lysis buffer was added to the high contrast wells, 30 min was cultured in the CO2 incubator at 37° C. After 100 μL working solution was added to each well, it was cultured for 0.5 h under dark and room temperature. After 50 μL stop solution was added to each well, the absorbance of 490 nm was determined immediately by a microplate reader (Thermomax, Molecular Devices).

HeLa cells [4] = assay: SIM imaging of intracellular labile Zn^2+ on ZnPT loading and TPEN scavenging; assay type: cell-based
Experimental: In view of these promising results, a 1:2 mixture of ZnCl2 and pyrithione sodium salt, a cell-permeable Zn^2+ carrier (ZnPT) to transport exogenous Zn^2+ to cells, and a cell-permeable Zn^2+-chelating agent, TPEN, were used to evaluate the reversibility of fluorescence response to Zn^2+ in living cells according to methods described elsewhere. To determine the entry time of exogenous Zn^2+ into cells, NapBu-BPEA was incubated and an initial image was captured, after which 50 μM ZnPT (50 μM ZnCl2/100 μM pyrithione sodium salt) was used to replace the culture medium in dye-free and serum-free DMEM. […] The variance may be attributed to the difference in lipophilicity.
Next, NapBu-BPEA was investigated for its intracellular labile Zn^2+ imaging ability. Imaging experiments were performed in HeLa cells upon exogenous Zn^2+ loading via incubation with zinc pyrithione cmplex (ZnPT), a cell-permeable Zn^2+ carrier.
Intracellular labile Zn^2+ enhancement processes were tracked by recording SIM images every 2 min. […] While not desiring to be bound by theory, it is proposed that the butyl tail of NapBu-BPEA is responsible for the retained multiple organelle accumulation behavior of NapBu-BPEA upon Zn^2+ binding.

[5] = Zn^2+ fluorescence titration, Job's plot, detection limit, binding constant, metal ion selectivity and TPEN reversibility in HEPES/DMSO
Experimental: (§1) The stock solution of NapBu-BPEA was prepared with DMSO of HPLC pure grade to make the concentration as 10 mM, and frozen after packing at −20° C. The sample solutions were diluted to the final concentration as 10 μM with 3 mL HEPES buffer (50 mM, 100 mM KNO3, 10% DMSO, pH 7.2) in quartz cuvettes with 1 cm path lengths. The fluorescent spectra were recorded upon the excitation of 450 nm.
(§2) The Zn^2+ titration spectra were recorded by adding in aliquots Zn^2+ solution from 0 to 15 μM into the NapBu-BPEA solution (10 μM). The detection limit of NapBu-BPEA was determined by collecting the fluorescence spectra of NapBu-BPEA for 6 times to obtain the background noise (a). The probe's fluorescent sensing selectivity of NapBu-BPEA was recorded after adding metal cation (1000 eq K^+, Na^+, Ca^2+, Mg^2+; 1 eq Cd^2+, Ni^2+, Cr^3+, Pb^2+, Al^3+, Co^2+, Fe^2+, Fe^3+, Ba^2+, Mn^2+) to the NapBu-BPEA solution. The fluorescence quantum yields were determined by using Ru(bpy)3^2+ (Φ=0.04) in DMSO/HEPES (v:v, 1:9)(λex=450 nm) as the reference. To determine binding constant, various amounts of Zn(NO3)2 (0˜9 mM) were added to NapBu-BPEA solution buffered with DMSO/HEPES (50 mM, pH 7.21, 100 mM KNO3) containing 10 mM EGTA. The pH stability was measured by recording the fluorescence spectra of NapBu-BPEA solution in the presence of Zn^2+ at different pH adjusted with KOH and HCl.

ATG13 KO HeLa cells = assay: SIM imaging of labile Zn^2+ after CCCP in autophagy-deficient cells; assay type: cell-based
Experimental: (§3) Wild-type, FIP200 and ATG13 KO HeLa cell lines were gifted from Dr. Jun-Lin Guan's lab (University of Cincinnati). Cells were cultured in DMEM supplemented 10% FBS and 100 U/mL penicillin-streptomycin (Gibco) in 5% CO2 incubator at 37° C.
(§4) Considering that ATG13 and FIP200 are essential proteins for autophagy, to further elucidate the relationship between autophagy and changes in level of Zn^2+ two stable knockout (KO) cell lines were obtained (ATG13 KO HeLa cells and FIP200 KO HeLa cells) via CRISPR/Cas9 gene editing technology.

FIP200 KO HeLa cells = assay: as above; assay type: cell-based
Experimental: as §3, §4

[6] = Spectroscopic study: fluorescence quantum yield and pH stability in DMSO/HEPES; assay type: physicochemical; settings: probe bound to Zn^2+, pH titration
Experimental: as §1, §2

[7] = CCCP treatment, regions selected by morphology

Row | SMILES | fluorescence intensity remaining (HeLa cells [1]; after 120 s of laser stimulation) | green fluorescence intensity in mitophagic versus non-autophagic cells (HeLa cells [2]; CCCP 10 μM, 24 h, probe 10 μM, 1 h) | increase of Zn^2+ level (fluorescence intensity) in endoplasmic reticulum during autophagy (HeLa cells [2]; [7]) | increase of Zn^2+ level (fluorescence intensity) in mitochondria during autophagy (HeLa cells [2]; [7]) | fluorescence signal of CCCP-treated versus untreated cells (HeLa cells [2]; CCCP-induced mitophagy) | fluorescence intensity of EBSS-treated cells (HeLa cells [2]; EBSS starvation 24 h) | activity of lactate dehydrogenase released into the medium (HeLa cells [3]) | cell viability (HeLa cells [3]) | photobleaching (HeLa cells [1]; within 300 s of laser stimulation) | time until fluorescence intensity is balanced/stable after exogenous Zn^2+ (HeLa cells [4]; 50 μM ZnPT, images every 2 min) | reversibility of intracellular response (HeLa cells [4]; 100 μM TPEN added to cells) | limit of detection for Zn^2+ ([5]; 3 σ/slope method) | fluorescence selectivity against other metal ions ([5]; 1000 eq K+, Na+, Ca2+, Mg2+, 1 eq other cations, response only to Cd^2+) | Kd ([5]; HEPES 50 mM, 100 mM KNO3, 10% DMSO, 10 mM EGTA, pH 7.21, read-out: dissociation constant (Kd) of the complex between Zn^2+ and NapBu-BPEA) | reversibility of fluorescence response on TPEN addition ([5]; Zn^2+ 10 μM then TPEN 10 μM, five on-off cycles) | emission enhancement on Zn^2+ titration ([5]; at 540 nm, 10 μM probe) | fluorescence intensity, CCCP-treated versus untreated (ATG13 KO HeLa cells) | fluorescence intensity, CCCP-treated versus untreated (FIP200 KO HeLa cells) | pH range of stable fluorescence response [6]
1 | C[N+]1=C(/C=C/C=C/C=C2\N(Cc3ccc(CCl)cc3)c3ccccc3C2(C)C)C(C)(C)c2ccccc21.[Cl-] [MTDR, reference compound] | less than 30% |  |  |  |  |  |  |  |  |  |  |  |  |  |  |  |  |  | 
2 | CCCCN1C(=O)c2cccc3c(NCCN(Cc4ccccn4)Cc4ccccn4)ccc(c23)C1=O [NapBu-BPEA, 2,4-(bis(pyridin-2-ylmethyl)aminoethyl)amino-N-n-butyl-1,8-naphthalimide] |  | ~2.0 fold | 1.55 fold | 1.89 fold | improved significantly | decreased | less than 20% | exceeded 80% | negligible photobleaching | 6 min and 4 min | respond reversibly to intracellular Zn^2+ | 54.5 nM | specific fluorescence selectivity for Zn^2+ | 4.98 nM | favorable reversible response to Zn^2+ | 3.6 fold | no significant change in fluorescence intensity | no significant change in fluorescence intensity | 4-8 pH
